Patent publication US9179674B2, “Macrocyclic picolinamide compounds with fungicidal activity” (DOW AGROSCIENCES LLC, priority 2013, dated 2015)

Legend:
Rhyncosporium secalis = assay: Barley Scald fungicidal activity (RHYNSE); format: in vivo; settings: Hordeum vulgare, 24 h, 1 Day Protectant, read-out: Disease Control RHYNSE 1DP
Protocol: Technical grades of materials were dissolved in acetone, which were then mixed with nine volumes of water containing 110 ppm Triton X-100. The fungicide solutions were applied onto wheat seedlings using an automated booth sprayer to run-off. All sprayed plants were allowed to air dry prior to further handling. All fungicides were evaluated using the aforementioned method for their activity vs. all target diseases. Wheat leaf blotch and brown rust activity were also evaluated using track spray applications, in which case the fungicides were formulated as EC formulations, containing 0.1% Trycol 5941 in the spray solutions. Wheat plants (variety Yuma) were grown from seed in a greenhouse in 50% mineral soil/50% soil-less Metro mix until the first leaf was fully emerged, with 7-10 seedlings per pot. These plants were inoculated with an aqueous spore suspension of Septoria tritici either prior to or after fungicide treatments. After inoculation the plants were kept in 100% relative humidity (one day in a dark dew chamber followed by two to three days in a lighted dew chamber at 20° C.) to permit spores to germinate and infect the leaf. The plants were then transferred to a greenhouse set at 20° C. for disease to develop. When disease symptoms were fully expressed on the 1st leaves of untreated plants, infection levels were assessed on a scale of 0 to 100 percent disease severity. Percent disease control was calculated using the ratio of disease severity on treated plants relative to untreated plants. Evaluation of Fungicidal Activity: Barley Scald (Rhyncosporium secalis; Bayer Code […]) Barley seedlings (variety Harrington) were propagated in soil-less Metro mix, with each pot having 8 to 12 plants, and used in the test when first leaf was fully emerged. Test plants were inoculated by an aqueous spore suspension of Rhyncosporium secalis 24 hr after fungicide treatments. After inoculation the plants were kept in a dew room at 20° C. with 100% relative humidity for 48 hr. The plants were then transferred to a greenhouse set at 20° C. for disease to develop. Fungicide formulation, application and disease assessment on the sprayed leaves followed the procedures as described in the Example A.

Uncinula necator = assay: Grape Powdery Mildew fungicidal activity (UNCINE); format: in vivo; settings: Erysiphe necator, 24 h, 1 Day Protectant, read-out: Disease Control UNCINE 1DP
Protocol: Technical grades of materials were dissolved in acetone, which were then mixed with nine volumes of water containing 110 ppm Triton X-100. The fungicide solutions were applied onto wheat seedlings using an automated booth sprayer to run-off. All sprayed plants were allowed to air dry prior to further handling. All fungicides were evaluated using the aforementioned method for their activity vs. all target diseases. Wheat leaf blotch and brown rust activity were also evaluated using track spray applications, in which case the fungicides were formulated as EC formulations, containing 0.1% Trycol 5941 in the spray solutions. Wheat plants (variety Yuma) were grown from seed in a greenhouse in 50% mineral soil/50% soil-less Metro mix until the first leaf was fully emerged, with 7-10 seedlings per pot. These plants were inoculated with an aqueous spore suspension of Septoria tritici either prior to or after fungicide treatments. After inoculation the plants were kept in 100% relative humidity (one day in a dark dew chamber followed by two to three days in a lighted dew chamber at 20° C.) to permit spores to germinate and infect the leaf. The plants were then transferred to a greenhouse set at 20° C. for disease to develop. When disease symptoms were fully expressed on the 1st leaves of untreated plants, infection levels were assessed on a scale of 0 to 100 percent disease severity. Percent disease control was calculated using the ratio of disease severity on treated plants relative to untreated plants. Evaluation of Fungicidal Activity: Grape Powdery Mildew (Uncinula necator; Bayer code […]) Grape seedlings (variety Carignane) were grown in soil-less Metro mix, with one plant per pot, and used in the test when approximately one month old. Plants were inoculated 24 hr after fungicide treatment by shaking spores from infected leaves over test plants. Plants were maintained in a greenhouse set at 20° C. until disease was fully developed. Fungicide formulation, application and disease assessment on the sprayed leaves followed the procedures as described in the Example A.

Phakopsora pachyrhizi = assay: Asian Soybean Rust fungicidal activity (PHAKPA); format: in vivo; settings: 25 ppm; for Disease Control PHAKPA 1DP: 1 Day Protectant; for Disease Control PHAKPA 3DC: 3 Day Curative
Protocol: Evaluation of Fungicidal Activity: Asian Soybean Rust (Phakopsora pachyrhizi; Bayer Code PHAKPA)
Technical grades of materials were dissolved in acetone, which were then mixed with nine volumes of water containing 0.011% Tween 20. The fungicide solutions were applied onto soybean seedlings using an automated booth sprayer to run-off. All sprayed plants were allowed to air dry prior to further handling.
Soybean plants (variety Williams 82) were grown in soil-less Metro mix, with one plant per pot. Two weeks old seedlings were used for testing. Plants were inoculated either 3 days prior to or 1 day after fungicide treatments. Plants were incubated for 24 h in a dark dew room at 22° C. and 100% RH then transferred to a growth room at 23° C. for disease to develop. Disease severity was assessed on the sprayed leaves.

[1] = system: Blumeria graminis f. sp. tritici; assay: Wheat Powdery Mildew fungicidal activity (ERYSGT); format: in vivo; settings: 100 ppm, 1 Day Protectant
Protocol: Technical grades of materials were dissolved in acetone, which were then mixed with nine volumes of water containing 110 ppm Triton X-100. The fungicide solutions were applied onto wheat seedlings using an automated booth sprayer to run-off. All sprayed plants were allowed to air dry prior to further handling. All fungicides were evaluated using the aforementioned method for their activity vs. all target diseases. Wheat leaf blotch and brown rust activity were also evaluated using track spray applications, in which case the fungicides were formulated as EC formulations, containing 0.1% Trycol 5941 in the spray solutions. Wheat plants (variety Yuma) were grown from seed in a greenhouse in 50% mineral soil/50% soil-less Metro mix until the first leaf was fully emerged, with 7-10 seedlings per pot. These plants were inoculated with an aqueous spore suspension of Septoria tritici either prior to or after fungicide treatments. After inoculation the plants were kept in 100% relative humidity (one day in a dark dew chamber followed by two to three days in a lighted dew chamber at 20° C.) to permit spores to germinate and infect the leaf. The plants were then transferred to a greenhouse set at 20° C. for disease to develop. When disease symptoms were fully expressed on the 1st leaves of untreated plants, infection levels were assessed on a scale of 0 to 100 percent disease severity. Percent disease control was calculated using the ratio of disease severity on treated plants relative to untreated plants. Evaluation of Fungicidal Activity: Wheat Powdery Mildew (Blumeria graminis f. sp. tritici; Synonym: Erysiphe graminis f. sp. tritici; Bayer Code […]) Wheat plants (variety Yuma) were grown from seed in a greenhouse in 50% mineral soil/50% soil-less Metro mix until the first leaf was fully emerged, with 7-10 seedlings per pot. These plants were inoculated by dusting with infected stock plants 24 hr after fungicide treatments. After inoculation the plants were kept in a greenhouse set at 20° C. for disease to develop. […]

Row | Compound | pest or weed control at 100 ppm (Rhyncosporium secalis) [%] | melting point [°C] | pest or weed control at 100 ppm (Uncinula necator) [%] | Disease Control PHAKPA 1DP (Phakopsora pachyrhizi) | Disease Control PHAKPA 3DC (Phakopsora pachyrhizi) | Disease Control ERYSGT 1DP [1]
1 | COc1ccnc(C(=O)N[C@H]2COC[C@H](CC(F)(F)F)[C@@H](OC3CCCC3)[C@H](C)OC2=O)c1OCOC(C)=O [Compound F105] | 80 to 100 | – | – | – | – | –
2 | COc1ccnc(C(=O)N[C@H]2COC[C@H](CC3CCCC3)[C@@H](OC(=O)C(C)C)[C@H](C)OC2=O)c1OCOC(C)=O [Compound F114] | 80 to 100 | 41 to 45 | 80 to 100 | A (80-100) | B (More than 0-Less than 80) | –
3 | COc1ccnc(C(=O)N[C@H]2COC[C@H](Cc3ccc(C)cc3)[C@@H](OCC(C)C)[C@H](C)OC2=O)c1OCOC(C)=O [Compound F117] | – | – | 80 to 100 | – | – | A (80-100)
4 | CCCCCO[C@@H]1[C@@H](Cc2ccc(Cl)cc2Cl)COC[C@H](NC(=O)c2nccc(OC)c2OC(=O)CCOC)C(=O)O[C@H]1C [Compound F123] | 80 to 100 | 96 to 99 | 80 to 100 | B (More than 0-Less than 80) | – | –
5 | COc1ccnc(C(=O)N[C@H]2COC[C@H](Cc3ccc(F)cc3)[C@@H](OCC(C)C)[C@H](C)OC2=O)c1OCOC(C)=O [Compound F96] | – | – | 80 to 100 | – | – | A (80-100)
6 | COc1ccnc(C(=O)N[C@H]2COC[C@H](Cc3ccc(C)cc3)[C@@H](OCC(C)C)[C@H](C)OC2=O)c1OC(C)=O [Compound F80] | – | – | 0 to 80 | – | – | A (80-100)
7 | COc1ccnc(C(=O)N[C@H]2COC[C@H](CCc3ccccc3)[C@@H](OCC(C)C)[C@H](C)OC2=O)c1OCOC(C)=O [Compound F82] | 80 to 100 | – | – | – | – | –
8 | COc1ccnc(C(=O)N[C@H]2COC[C@H](Cc3ccc(F)cc3)[C@@H](OCC(C)C)[C@H](C)OC2=O)c1OC(C)=O [Compound F60] | – | – | 80 to 100 | – | – | –
9 | COc1ccnc(C(=O)N[C@H]2COC[C@H](Cc3cccc4ccccc34)[C@@H](OC(=O)C(C)C)[C@H](C)OC2=O)c1OCOC(C)=O [Compound F83, (3S,6S,7R,8S)-3-(3-(acetoxymethoxy)-4-methoxypicolin-amido)-6-methyl-8-(naphthalen-1-ylmethyl)-4-oxo-1,5-dioxonan-7-yl isobutyrate] | 80 to 100 | 58 to 64 | 0 to 80 | – | – | –
10 | CCCCCO[C@@H]1[C@@H](Cc2ccc(Cl)cc2Cl)COC[C@H](NC(=O)c2nccc(OC)c2OCOC(=O)COCC)C(=O)O[C@H]1C [Compound F122] | 80 to 100 | – | 80 to 100 | B (More than 0-Less than 80) | – | –
11 | COc1ccnc(C(=O)N[C@H]2COC[C@H](CCC(C)C)[C@@H](OCCCC(F)(F)F)[C@H](C)OC2=O)c1OCOC(C)=O [Compound F107] | 80 to 100 | – | 0 to 80 | A (80-100) | B (More than 0-Less than 80) | –
12 | COc1ccnc(C(=O)N[C@H]2COC[C@H](Cc3ccc(Cl)cc3Cl)[C@@H](OC(=O)C(C)C)[C@H](C)OC2=O)c1OC(C)=O [Compound F73] | 80 to 100 | 93 to 97 | – | – | – | –
13 | COc1ccnc(C(=O)N[C@H]2COC[C@H](Cc3ccc(Cl)cc3Cl)[C@@H](OC(=O)C(C)C)[C@H](C)OC2=O)c1OCOC(C)=O [Compound F110] | 80 to 100 | 62 to 66 | – | – | – | –
14 | COc1ccnc(C(=O)N[C@H]2COC[C@H](CCC(C)C)[C@@H](OC(=O)C3CC3)[C@H](C)OC2=O)c1OCOC(C)=O [Compound F108] | 80 to 100 | – | 80 to 100 | A (80-100) | A (80-100) | –
